Test results: patent US10294202B2, “Pyrrolidinones as herbicides” (FMC Corporation, priority 2013, dated 2019)

Assays:
barnyardgrass [1] = assay: Test A pre-/postemergence herbicide test; format: in vivo, Echinochloa crus-galli
Summary of the method: (§1)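 Approximately 10 days after treatment in the greenhouse, plants were compared with untreated controls and given a 0–100 visual injury rating. Applications: preemergence directed soil spray; postemergence on 2–10 cm plants at the one- to two-leaf stage.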

crabgrass, large = assay: Test A pre-/postemergence herbicide test; format: in vivo, Digitaria sanguinalis
Summary of the method: as §1

giant foxtail = assay: Test A pre-/postemergence herbicide test; format: in vivo, Setaria faberii
Summary of the method: as §1

morningglory = assay: Test A pre-/postemergence herbicide test; format: in vivo, Ipomoea spp.
Summary of the method: as §1

pigweed = assay: Test A pre-/postemergence herbicide test; format: in vivo, Amaranthus retroflexus
Summary of the method: as §1

velvetleaf = assay: Test A pre-/postemergence herbicide test; format: in vivo, Abutilon theophrasti
Summary of the method: as §1

wheat = assay: Test A pre-/postemergence herbicide test; format: in vivo, Triticum aestivum
Summary of the method: as §1

corn = assay: Test A pre-/postemergence herbicide test; format: in vivo, Zea mays
Summary of the method: as §1

sedge, umbrella = assay: Test B flooded paddy test; format: in vivo, Cyperus difformis; conditions: 250 g ai/ha, Flood; scale of 0 to 100 where 0 is no effect and 100 is complete control
Experimental: (§2) Plant species in the flooded paddy test selected from rice (Oryza sativa), sedge, umbrella (small-flower umbrella sedge, Cyperus difformis), ducksalad (Heteranthera limosa), and barnyardgrass (Echinochloa crus-galli) were grown to the 2-leaf stage for testing. At time of treatment, test pots were flooded to 3 cm above the soil surface, treated by application of test compounds directly to the paddy water, and then maintained at that water depth for the duration of the test. Treated plants and controls were maintained in a greenhouse for 13 to 15 days, after which time all species were compared to controls and visually evaluated. Plant response ratings, summarized in Table B, are based on a scale of 0 to 100 where 0 is no effect and 100 is complete control. A dash (-) response means no test result.

ducksalad = assay: Test B flooded paddy test; format: in vivo, Heteranthera limosa; conditions: 250 g ai/ha, Flood; scale of 0 to 100 where 0 is no effect and 100 is complete control
Experimental: as §2

barnyardgrass [2] = assay: Test B flooded paddy test; format: in vivo, Echinochloa crus-galli; conditions: 250 g ai/ha, Flood; scale of 0 to 100 where 0 is no effect and 100 is complete control
Experimental: as §2

[3] = Postemergence, 125 g ai/ha, 0 to 100 scale, 0 no effect, 100 complete control
[4] = Postemergence, 500 g ai/ha, 0 to 100 scale (0 no effect, 100 complete control)
[5] = Preemergence, 125 g ai/ha, visual rating on 0 to 100 scale (0 no effect, 100 complete control)
[6] = preemergence, 500 g ai/ha, 0 to 100 scale

O=C1NCC(c2ccccc2)C1C(=O)Nc1ccccc1C(F)(F)F (racemic) [Compound 82]
50: Plant response rating, Barnyardgrass (barnyardgrass [1]; [4]) | Plant response rating, Barnyardgrass (barnyardgrass [1]; preemergence, 500 g ai/ha, 0 to 100 scale (0 no effect, 100 complete control)) | Plant response rating, Crabgrass, Large (crabgrass, large; [3])
20: Foxtail, Giant plant response rating (giant foxtail; [5]) | Plant response rating, Velvetleaf (velvetleaf; [4])
90: Plant response rating, Crabgrass, Large (crabgrass, large; [6])
0: Plant response rating, Barnyardgrass (barnyardgrass [1]; [3]) | Barnyardgrass plant response rating (barnyardgrass [1]; [5]) | Plant response rating, Foxtail, Giant (giant foxtail; [3]) | Plant response rating, Morningglory (morningglory; [3]) | Plant response rating, Morningglory (morningglory; [6]) | Plant response rating, Pigweed (pigweed; [3]) | Plant response rating, Pigweed (pigweed; [4]) | Pigweed plant response rating (pigweed; [5]) | Plant response rating, Pigweed (pigweed; [6]) | Plant response rating, Velvetleaf (velvetleaf; [3]) | Velvetleaf plant response rating (velvetleaf; [5]) | Plant response rating, Velvetleaf (velvetleaf; [6]) | Plant response rating, Wheat (wheat; [3]) | Wheat plant response rating (wheat; [5]) | Plant response rating, Wheat (wheat; [6]) | Plant response rating, Corn (corn; [3]) | Plant response rating, Corn (corn; [4]) | Corn plant response rating (corn; [5]) | Plant response rating, Corn (corn; [6]) | Plant response rating, Barnyardgrass (barnyardgrass [2])
70: Plant response rating, Crabgrass, Large (crabgrass, large; [4]) | Plant response rating, Foxtail, Giant (giant foxtail; [4]) | Plant response rating, Foxtail, Giant (giant foxtail; [6]) | Plant response rating, Ducksalad (ducksalad)
80: Crabgrass, Large plant response rating (crabgrass, large; [5]) | Plant response rating, Sedge, Umbrella (sedge, umbrella)
10: Plant response rating, Morningglory (morningglory; [4]) | Plant response rating, Wheat (wheat; [4])
